The values below come from patent EP0052361A1, “Novel 16-membered macrolide compounds” (SANRAKU-OCEAN CO., LTD., priority 1980, dated 1982).

For series [1], the system named is Shigella dysenteriae JS 11910. The series is described as follows: MIC by tube dilution method in brain heart infusion broth. Type of series: cell-based. Particulars: JS11910, pH 7.5, read-out: Minimum growth inhibitory concentration. As for the experimental part:
(§1) The minimum growth inhibitory concentrations (MIC) of the compounds (I) against various microorganisms were measured by a tube dilution method in a brain heart infusion broth (pH 7.5) as a medium.

Series [2] has as its system Staphylococcus aureus MS9861. The series is described as above. Type of series: cell-based. Particulars: MS9861, Table 2-2, brain heart infusion broth pH 7.5, read-out: Antimicrobial activity (MIC) Staphylococcus aureus MS9861. The procedure: as §1
Series [3] has as its system Klebsiella pneumoniae PCI602. The series is described as above. Particulars: brain heart infusion broth pH 7.5. Type of series: cell-based. As for the experimental part:
as §1

The subject of series [4] is Bacillus subtilis NRRL B-558. The description is as above. Type of series: cell-based. Particulars: NRRLB558, brain heart infusion broth pH 7.5. The procedure: as §1
Series [5] concerns Staphylococcus aureus 209P. The series is described as above. Type of series: cell-based. Particulars: brain heart infusion broth pH 7.5. As for the experimental part: as §1
Series [6] deals with Corynebacterium bovis 1810. The description is as above. Particulars: Corynebacterium bovis 1810; brain heart infusion broth pH 7.5; read-out: Minimum growth inhibitory concentration. The series is classed as cell-based. As for the experimental part:
as §1

Another series has as its system Sartina lutea PCI 1001. Described as above. Type of series: cell-based. Particulars: Sartina lutea PCI 1001; brain heart infusion broth pH 7.5; read-out: Minimum growth inhibitory concentration. The procedure:
as §1

Series [7] concerns Staphylococcus aureus MS10225. The description is as above. The series is classed as cell-based. Particulars: Staphylococcus aureus MS10225 (resistant to tylosin); brain heart infusion broth pH 7.5; read-out: Minimum growth inhibitory concentration. As for the experimental part:
as §1

A further series relates to Escherichia coli NIHJ. The series is described as above. Type of series: cell-based. Particulars: Escherichia coli NIHJ; brain heart infusion broth pH 7.5; read-out: Minimum growth inhibitory concentration. As for the experimental part:
as §1

The subject of series [8] is Mycoplasma gallisepticum KP-13. The series is described as above. Type of series: cell-based. Particulars: Mycoplasmoides gallisepticum, KP13; Mycoplasma gallisepticum KP-13; brain heart infusion broth pH 7.5; read-out: Minimum growth inhibitory concentration. The procedure: as §1
On the set-up of series [9]: species or system mice. Particulars: mouse, in vivo, po. As for the experimental part: • (2) Concentration in the blood • (2-1) The concentration of the antibiotic YT-3927 of formula (I-a) in the blood was measured by bioassay with […] lutea using mice. […] Then, periodically, the concentration of the antibiotic YT-3927 in the blood was measured. The peak of the blood concentration was noted 1.5 to 2 hours after the administration, and at the peak, the concentration was […]. In contrast, in the same experiment with tylosin, the peak was noted 1.5 to 2 hours later, but the concentration was less than one-fifth of that of the antibiotic YT-3927. • (2-2) The concentration of each of the antibiotic YT-3927 derivatives of formula (I-b) in the blood was measured by bioassay with […] lutea using mice. […] The concentration of the derivative (I-b) in the blood was periodically measured. The concentration of each of the compounds (I-b) 2 hours after the administration is shown in Table 3. [formula] • (3) Toxicity

Converted amounts (≈) assume the structure as drawn. Where two headings read alike, the source gives them in different places.

With `CC[C@H]1OC(=O)C[C@@H](O)[C@H](C)[C@@H](O[C@@H]2O[C@H](C)[C@@H](O[C@H]3C[C@@](C)(O)[C@@H](O)[C@H](C)O3)[C@H](N(C)C)[C@H]2O)[C@@H](CC=O)C[C@@H](C)C(=O)/C=C/C(C)=C/[C@@H]1CO[C@@H]1O[C@H](C)[C@@H](O)[C@@H](OC)[C@H]1OC` [Tylosin, reference compound], the MIC in series [1] came out at 25 µg/mL (≈ 27.3 µM); in series [2], 6.3 µg/mL (≈ 6.88 µM); in series [3] (Klebsiella pneumoniae PCI602, Table 2-1, read-out: Minimum growth inhibitory concentration), 25 µg/mL (≈ 27.3 µM); in series [3] (Klebsiella pneumoniae, PCI602, Table 2-2, read-out: Antimicrobial activity (MIC) Klebsiella pneumonae PCI602) it was 25 µg/mL (≈ 27.3 µM); in series [4] (Bacillus subtilis, Table 2-2, read-out: Antimicrobial activity (MIC) Bacillus subtilis NRRL B558) it was 0.8 µg/mL (≈ 0.873 µM); in series [4] (Bacillus subtilis NRRL B-558, Table 2-1, read-out: Minimum growth inhibitory concentration) it was 0.78 µg/mL (≈ 0.851 µM). Further, the MIC in [5] (Staphylococcus aureus 209P, Table 2-1, read-out: Minimum growth inhibitory concentration) is 0.78 µg/mL (≈ 0.851 µM); in series [5] (Staphylococcus aureus, 209P, Table 2-2, read-out: Antimicrobial activity (MIC) Staphylococcus aureus 209P) it was 0.8 µg/mL (≈ 0.873 µM); in [6] it was less than 0.2 µg/mL; in the series with Sartina lutea PCI 1001, less than 0.2 µg/mL; in series [7] it was 3.12 µg/mL (≈ 3.41 µM); in the series with Escherichia coli NIHJ it was 100 µg/mL (≈ 109 µM). In addition, in [8], the MIC turned out to be 0.02 µg/mL (≈ 0.0218 µM). Moreover, the “peak concentration in the blood as a fraction of that of the antibiotic YT-3927” value in [9] was “less than one-fifth”.
